# Source: article PMC12298351, “Novel 3,19-(N-Phenyl-3-(4-fluorophenyl)-pyrazole) Acetal of Andrographolide Promotes Cell Cycle Arrest and Apoptosis in MDA-MB-231 Breast Cancer Cells” (Pharmaceuticals, 2025)
# Tests used:
# HCT-116 = format: cell-based; settings: HCT-116, Colon
# SNB-19 = format: cell-based; settings: SNB-19, CNS
# OVCAR-4 = format: cell-based; settings: OVCAR-4, Ovarian
# TK-10 = format: cell-based; settings: TK-10, Renal
# K-562 = settings: K-562, Leukemia
# RPMI-8226 = settings: RPMI-8226, Leukemia
# COLO 205 = settings: COLO 205, Colon
# HCT-15 = settings: HCT-15, Colon
# SF-295 = settings: SF-295, CNS
# SF-539 = settings: SF-539, CNS
# SNB-75 = settings: SNB-75, CNS
# MDA-MB-435 = settings: MDA-MB-435, Melanoma
# UACC-257 = settings: UACC-257, Melanoma
# UACC-62 = settings: UACC-62, Melanoma
# OVCAR-3 = settings: OVCAR-3, Ovarian
# OVCAR-8 = settings: OVCAR-8, Ovarian
# SK-OV-3 = settings: SK-OV-3, Ovarian
# 786-0 = settings: 786-0, Renal
# A498 = settings: A498, Renal
# RXF 393 = settings: RXF 393, Renal
# UO-31 = settings: UO-31, Renal
# PC-3 = settings: PC-3, Prostate
# [1] = read-out: 50% lethal concentration (LC50)
smiles,measurement,setting,value
C=C1CCC2C3(C)COC(c4cn(-c5ccccc5)nc4-c4cccc(F)c4)OC3CCC2(C)C1CC=C1C(=O)OCC1O (stereo not drawn) [1c],GI50,HCT-116,3.48 µM
same,Total growth inhibition (TGI),HCT-116,1.59 µM
same,Total growth inhibition (TGI),SNB-19,2.72 µM
same,GI50,OVCAR-4,1.74 µM
same,Total growth inhibition (TGI),OVCAR-4,4.27 µM
same,CC50,OVCAR-4; [1],> 100 µM
same,GI50,TK-10,1.41 µM
same,GI50,CCRF-CEM; Leukemia,2.06 µM
same,Total growth inhibition (TGI),CCRF-CEM; Leukemia,> 100 µM
same,CC50,"CCRF-CEM; read-out: 50% lethal concentration (LC50), Leukemia",> 100 µM
same,GI50,K-562,2.14 µM
same,Total growth inhibition (TGI),K-562,> 100 µM
same,CC50,K-562; [1],> 100 µM
same,GI50,RPMI-8226,2.63 µM
same,Total growth inhibition (TGI),RPMI-8226,> 100 µM
same,CC50,RPMI-8226; [1],> 100 µM
same,Total growth inhibition (TGI),EKVX; Non-Small Cell Lung,5.17 µM
same,GI50,EKVX; Non-Small-Cell Lung,2.21 µM
same,CC50,"EKVX; read-out: 50% lethal concentration (LC50), Non-Small Cell Lung",56 µM
same,Total growth inhibition (TGI),"HOP-92; HOP-92, Non-Small Cell Lung",3.03 µM
same,GI50,"HOP-92; HOP-92, Non-Small-Cell Lung",1.53 µM
same,CC50,"HOP-92; read-out: 50% lethal concentration (LC50), HOP-92, Non-Small Cell Lung",6.02 µM
same,Total growth inhibition (TGI),"NCI-H226; NCI-H226, Non-Small Cell Lung",3.19 µM
same,GI50,"NCI-H226; NCI-H226, Non-Small-Cell Lung",1.67 µM
same,CC50,"NCI-H226; read-out: 50% lethal concentration (LC50), NCI-H226, Non-Small Cell Lung",6.08 µM
same,Total growth inhibition (TGI),"NCI-H460; NCI-H460, Non-Small Cell Lung",3.59 µM
same,GI50,"NCI-H460; NCI-H460, Non-Small-Cell Lung",1.81 µM
same,Total growth inhibition (TGI),"NCI-H522; NCI-H522, Non-Small Cell Lung",3.08 µM
same,GI50,"NCI-H522; NCI-H522, Non-Small-Cell Lung",1.52 µM
same,CC50,"NCI-H522; read-out: 50% lethal concentration (LC50), NCI-H522, Non-Small Cell Lung",6.24 µM
same,GI50,COLO 205,2.06 µM
same,Total growth inhibition (TGI),COLO 205,4.65 µM
same,GI50,HCT-15,1.57 µM
same,Total growth inhibition (TGI),HCT-15,3.18 µM
same,CC50,HCT-15; [1],6.45 µM
same,GI50,SF-295,1.52 µM
same,Total growth inhibition (TGI),SF-295,2.88 µM
same,CC50,SF-295; [1],5.49 µM
same,GI50,SF-539,1.77 µM
same,Total growth inhibition (TGI),SF-539,3.17 µM
same,CC50,SF-539; [1],5.68 µM
same,Total growth inhibition (TGI),SNB-75,3.55 µM
same,CC50,SNB-75; [1],5.82 µM
same,GI50,MDA-MB-435,1.5 µM
same,Total growth inhibition (TGI),MDA-MB-435,3.08 µM
same,CC50,MDA-MB-435; [1],6.32 µM
same,GI50,UACC-257,1.93 µM
same,Total growth inhibition (TGI),UACC-257,3.87 µM
same,GI50,UACC-62,1.65 µM
same,Total growth inhibition (TGI),UACC-62,3.21 µM
same,CC50,UACC-62; [1],6.22 µM
same,GI50,OVCAR-3,1.95 µM
same,Total growth inhibition (TGI),OVCAR-3,3.68 µM
same,CC50,OVCAR-3; [1],6.94 µM
same,GI50,OVCAR-8,1.77 µM
same,Total growth inhibition (TGI),OVCAR-8,3.88 µM
same,CC50,OVCAR-8; [1],8.5 µM
same,GI50,NCI/ADR-RES; Ovarian,1.77 µM
same,Total growth inhibition (TGI),NCI/ADR-RES; Ovarian,3.99 µM
same,CC50,"NCI/ADR-RES; read-out: 50% lethal concentration (LC50), Ovarian",8.99 µM
same,GI50,SK-OV-3,2.7 µM
same,Total growth inhibition (TGI),SK-OV-3,6.09 µM
same,CC50,SK-OV-3; [1],> 100 µM
same,GI50,786-0,1.78 µM
same,Total growth inhibition (TGI),786-0,3.59 µM
same,CC50,786-0; [1],7.24 µM
same,GI50,A498,4.13 µM
same,Total growth inhibition (TGI),A498,18.4 µM
same,CC50,A498; [1],53.3 µM
same,GI50,RXF 393,1.64 µM
same,Total growth inhibition (TGI),RXF 393,3.12 µM
same,CC50,RXF 393; [1],5.94 µM
same,GI50,SN12C; Renal,1.59 µM
same,Total growth inhibition (TGI),SN12C; Renal,3.42 µM
same,CC50,"SN12C; read-out: 50% lethal concentration (LC50), Renal",7.34 µM
same,GI50,UO-31,1.78 µM
same,Total growth inhibition (TGI),UO-31,2.77 µM
same,CC50,UO-31; [1],5.46 µM
same,GI50,PC-3,1.97 µM
same,Total growth inhibition (TGI),PC-3,4.56 µM
same,CC50,PC-3; [1],> 100 µM
same,GI50,HS 578T; Breast,1.66 µM
same,Total growth inhibition (TGI),HS 578T; Breast,3.18 µM
same,CC50,"HS 578T; read-out: 50% lethal concentration (LC50), Breast",6.12 µM
